Data reported in US12421489B2, “Biological control of plant pathogenic microorganisms” (priority 2016, dated 2025).

Assays:
Format in all cases: in vivo
Penicillium spp. = assay: Assay 8: wound protection of ‘Hongyang’ kiwifruit, Penicillium spp.; details: wounded ‘Hongyang’ kiwifruit, treatment 24 h before Penicillium, 6 days incubation
Experimental: (§1) The kiwifruit ‘Hongyang’-based screening assays (assays 8 and 9) were conducted in laboratories at the Plant and Food Research Ruakura Research Centre, Hamilton, New Zealand (PFR). PFR assays focused on wound application of YBCA5 treatment, a commercial biological control treatment and a fungicide were used as comparative controls.
(§2) The ‘Hongyang’ kiwifruit were sourced from the PFR Riwaka Research Orchard in Motueka on 12 Apr. 2017 for fruit based assays 8 and 9. Penicillium spp. Phomopsis spp., Alternaria spp., Colletotrichum spp., Cryptosporiopsis spp. and Botrytis spp. inoculation assays were carried out on ‘Hongyang’ kiwifruit that were picked at the harvest mature stage. […]
(§3) For assays 8 and 9, two sterile paper towels were placed beneath Plix cut-outs, moistened with 40 mL SDW and each fruit placed in disposable lunch boxes (Plix Extra Deep 45/45, containing five Plix fruit cut-outs to prevent fruit from moving), sealed, then placed into large (40 L) plastic bins which were closed to ensure high relative humidity for the first 24 h and incubated on the lab bench at 24° C. […] After 6 days, (Alternaria spp. Botrytis spp., Penicillium spp., Phomopsis spp., Colletotrichum spp.) and 7 days (Cryptosporiopsis spp.), the severity of fungal rot was assessed for each treatment by measuring the lesion length (mm) along the axis of the fruit. […]

Botrytis spp. = assay: Assay 8: wound protection of ‘Hongyang’ kiwifruit, Botrytis spp.; details: wounded ‘Hongyang’ kiwifruit, treatment 24 h before Botrytis spp., 6 days incubation
Experimental: as §1, §2, §3

[1] = test system: postharvest kiwifruit fruit pathogens; assay: Assays 8 and 9 overall: wound protection of ‘Hongyang’ kiwifruit (discussion); details: wounded ‘Hongyang’ kiwifruit, treatment 24 hours before pathogen
Experimental: as §1
Just prior to wound treatment, each fruit was wounded on the side with a sterile stainless steel spike (4 mm deep×3 mm wide) and 10 μl of each treatment suspension was pipetted into the wound and allowed to dry.
as §3, with “fruit. Data were expressed as the average lesion length, minus the initial width of the wound (3 mm).” for “fruit.”

CC(C)NC(=O)N1CC(=O)N(c2cc(Cl)cc(Cl)c2)C1=O [iprodione]
lesion size, comparison between treatments (Penicillium spp.): significantly smaller than the untreated control | lesion size, comparison between treatments (Botrytis spp.): significantly smaller than the untreated control | overall performance as wound protectant [1]: performed poorly
